From patent US20230295560A1, “SYNTHETIC ECOLOGIES FOR DRUG DISCOVERY” (priority 2021, published 2023)
≈ marks a conversion by molar mass, not a printed value.

How the values were obtained:
[1] = system: Enterobacter species; conditions: some Enterobacter species, after exposure to gradually increasing concentrations; cited from earlier work
[2] = system: P. aeruginosa PAO1; conditions: cited from earlier work
[3] = system: E. coli BW25113; assay: Minimum inhibitory concentration (MIC) of DOX for E. coli BW25113 ancestor and end-point isolates; assay type: cell-based
Protocol: Experimental protocol. Five populations of E. coli were adapted to DOX in flasks to identify the selection gradient for adaptation to DOX. On the first day, six different colonies were used to inoculate control and five populations containing fresh media. The growth media for E. coli was Lysogeny broth (LB; 10 g/l tryptone, 5 g/l yeast extract, 5 g/l sodium chloride). The following day, each population was transferred to fresh media containing 1 μg/ml DOX with 100-fold dilutions. The fresh media containing desired DOX concentration was prepared by appropriate dilution of DOX stock solution. The stock solution was prepared by dissolving DOX (Tokyo Chemical Industry Co., LTD, Japan) in water, followed by filter sterilization through a 0.22 μm filter (Millex-GP, Millipore, Bedford, MA). The following day, each population was transferred to three tubes containing 1×, 1.5×, and 2× of the current DOX concentration. Hereafter, each population with the best growth was transferred into three new tubes while the control population was propagated in fresh media until twice the DOX clinical breakpoint (16 μg/ml) was reached. In a similar way, on the first day of serial transfer of E. coli to DOX in microdroplets, four to six different colonies were used to inoculate control and three to five populations containing fresh media. The following day, the growth media containing a starting size of ˜2.6×10^6 cells/ml was prepared for each population through appropriate dilution of overnight culture. Fluorinated oil (Novec 7500, 3M, St Paul, MN) with 1.5 w/w % surfactants (Pico-Surf 1™, Sphere Fluidics, Cambridge, UK) was the continuous phase while the growth media containing E. coli was the dispersed phase. These prepared continuous and dispersed phases were injected into four to six microfluidic chips using twelve-multi channel syringe pumps (New Era Pump Systems, Farmingdale, NY) with determined flow rates. More than 800 μl droplets for each population were collected in either a 1.5 ml microfuge tube or a 50 ml tube for the incubation at 37° C. After incubation for 24 h, these droplets were chemically broken with a demulsifier (1H, 1H, 2H, 2H-Perfluorooctanol, >97%, Alfa Aesar, Ward Hill, MA). After OD measurement, cells were propagated by dilution in fresh growth media containing higher DOX concentrations until a concentration of 16 μg/ml. Experiment images were captured using a bright-field inverted microscope (Eclipse Ti2, Nikon, Japan) with a mounted high-speed camera (Phantom V7.2).
At the end of the experiment, individual end-point isolates were isolated randomly by streaking the entire population onto non-selective, nutrient-rich agar plates. End point isolates are defined as randomly selected, independent colonies derived from an evolved population. Since evolved populations are diverse, each end point isolate could potentially have different genotypes. A minimum of three end-point isolates was subjected to whole genome sequencing from each experimental evolution study. In addition, total genomic DNA for each evolved population was isolated and subjected to metagenomic analysis to identify the allelic frequency in the final populations (Dataset S1-S6). The populations were sequenced to achieve at least 100× coverage and a threshold of 5% was used to identify mutations. Both serial transfer and microdroplet populations identified the well-known adaptive alleles marR, acrR, rpsJ and envZ^32-35 as well as the movement of an insertion element IS186 into the upstream regulatory region of the gene encoding the Lon protease (FIG. 17). […] Both methods clearly implicated regulation of the AcrAB-TolC as the fundamental driver for DOX resistance, but there were interesting differences in the evolutionary trajectories identified.

Compound: benzalkonium chloride
- increase in minimum inhibitory concentration [1]: 5-300 fold

Compound: O=C(N[C@H](CO)[C@H](O)c1ccc([N+](=O)[O-])cc1)C(Cl)Cl [chloramphenicol]
- MIC [2]: 32 µg/mL (≈ 99 µM)

Compound: C[C@H]1c2cccc(O)c2C(O)=C2C(=O)[C@]3(O)C(O)=C(C(N)=O)C(=O)[C@@H](N(C)C)[C@@H]3[C@@H](O)[C@@H]21 [DOX]
- MIC of DOX ([3]; F (batch), end-point isolate 1-1): >16 µg/mL
- MIC of DOX ([3]; F (batch), end-point isolate 1-2): 16 µg/mL
- MIC of DOX ([3]; F (batch), end-point isolate 1-3): 16 µg/mL
- MIC of DOX ([3]; F (batch), end-point isolate 2-1): 16 µg/mL
- MIC of DOX ([3]; F (batch), end-point isolate 2-2): 16 µg/mL
- MIC of DOX ([3]; F (batch), end-point isolate 2-3): >16 µg/mL
- MIC of DOX ([3]; F (batch), end-point isolate 3-1): 16 µg/mL
- MIC of DOX ([3]; F (batch), end-point isolate 3-2): 16 µg/mL
- MIC of DOX ([3]; F (batch), end-point isolate 3-3): 16 µg/mL
- MIC of DOX ([3]; F (batch), end-point isolate 4-1): 16 µg/mL
- MIC of DOX ([3]; F (batch), end-point isolate 4-2): 16 µg/mL
- MIC of DOX ([3]; F (batch), end-point isolate 4-3): >16 µg/mL
- MIC of DOX ([3]; F (batch), end-point isolate 5-1): 16 µg/mL
- MIC of DOX ([3]; F (batch), end-point isolate 5-2): >16 µg/mL
- MIC of DOX ([3]; F (batch), end-point isolate 5-3): >16 µg/mL
- MIC of DOX ([3]; F (batch), isolate C1 (no drug control)): 4 µg/mL
- MIC of DOX ([3]; F (batch), isolate C2 (no drug control)): 4 µg/mL
- MIC of DOX ([3]; F (batch), isolate C3 (no drug control)): 4 µg/mL
- MIC of DOX for the ancestor ([3]; ancestor E. coli BW25113): 4 µg/mL
- MIC of DOX ([3]; microemulsion D1, end-point isolate 1-1): 8 µg/mL
- MIC of DOX ([3]; microemulsion D1, end-point isolate 1-2): 8 µg/mL
- MIC of DOX ([3]; microemulsion D1, end-point isolate 1-3): 8 µg/mL
- MIC of DOX ([3]; microemulsion D1, end-point isolate 2-1): 16 µg/mL
- MIC of DOX ([3]; microemulsion D1, end-point isolate 2-2): 16 µg/mL
- MIC of DOX ([3]; microemulsion D1, end-point isolate 2-3): 16 µg/mL
- MIC of DOX ([3]; microemulsion D1, end-point isolate 3-1): 16 µg/mL
- MIC of DOX ([3]; microemulsion D1, end-point isolate 3-2): 16 µg/mL
- MIC of DOX ([3]; microemulsion D1, end-point isolate 3-3): 16 µg/mL
- MIC of DOX ([3]; microemulsion D1, end-point isolate 4-1): 16 µg/mL
- MIC of DOX ([3]; microemulsion D1, end-point isolate 4-2): >16 µg/mL
- MIC of DOX ([3]; microemulsion D1, end-point isolate 4-3): 16 µg/mL
- MIC of DOX ([3]; microemulsion D1, end-point isolate 5-1): 16 µg/mL
- MIC of DOX ([3]; microemulsion D1, end-point isolate 5-2): 16 µg/mL
- MIC of DOX ([3]; microemulsion D1, end-point isolate 5-3): 16 µg/mL
- MIC of DOX ([3]; microemulsion D1, isolate C1 (no drug control)): 4 µg/mL
- MIC of DOX ([3]; microemulsion D1, isolate C2 (no drug control)): 4 µg/mL
- MIC of DOX ([3]; microemulsion D1, isolate C3 (no drug control)): 4 µg/mL
- MIC of DOX ([3]; microemulsion D2, end-point isolate 1-1): 16 µg/mL
- MIC of DOX ([3]; microemulsion D2, end-point isolate 1-2): 16 µg/mL
- MIC of DOX ([3]; microemulsion D2, end-point isolate 1-3): 16 µg/mL
- MIC of DOX ([3]; microemulsion D2, end-point isolate 2-1): 16 µg/mL
- MIC of DOX ([3]; microemulsion D2, end-point isolate 2-2): 16 µg/mL
- MIC of DOX ([3]; microemulsion D2, end-point isolate 2-3): 16 µg/mL
- MIC of DOX ([3]; microemulsion D2, end-point isolate 3-1): 16 µg/mL
- MIC of DOX ([3]; microemulsion D2, end-point isolate 3-2): 16 µg/mL
- MIC of DOX ([3]; microemulsion D2, end-point isolate 3-3): 16 µg/mL
- MIC of DOX ([3]; microemulsion D2, end-point isolate 4-1): 16 µg/mL
- MIC of DOX ([3]; microemulsion D2, end-point isolate 4-2): 16 µg/mL
- MIC of DOX ([3]; microemulsion D2, end-point isolate 4-3): 16 µg/mL
- MIC of DOX ([3]; microemulsion D2, end-point isolate 5-1): 16 µg/mL
- MIC of DOX ([3]; microemulsion D2, end-point isolate 5-2): 16 µg/mL
- MIC of DOX ([3]; microemulsion D2, end-point isolate 5-3): 16 µg/mL
- MIC of DOX ([3]; microemulsion D2, isolate C1 (no drug control)): 4 µg/mL
- MIC of DOX ([3]; microemulsion D2, isolate C2 (no drug control)): 4 µg/mL
- MIC of DOX ([3]; microemulsion D2, isolate C3 (no drug control)): 4 µg/mL
- MIC of DOX ([3]; microemulsion D3, end-point isolate 1-1): 16 µg/mL
- MIC of DOX ([3]; microemulsion D3, end-point isolate 1-2): 16 µg/mL
- MIC of DOX ([3]; microemulsion D3, end-point isolate 1-3): 16 µg/mL
- MIC of DOX ([3]; microemulsion D3, end-point isolate 2-1): 8 µg/mL
- MIC of DOX ([3]; microemulsion D3, end-point isolate 2-2): 16 µg/mL
- MIC of DOX ([3]; microemulsion D3, end-point isolate 2-3): 8 µg/mL
- MIC of DOX ([3]; microemulsion D3, end-point isolate 3-1): 16 µg/mL
- MIC of DOX ([3]; microemulsion D3, end-point isolate 3-2): 8 µg/mL
- MIC of DOX ([3]; microemulsion D3, end-point isolate 3-3): 16 µg/mL
- MIC of DOX ([3]; microemulsion D3, end-point isolate 4-1): 16 µg/mL
- MIC of DOX ([3]; microemulsion D3, end-point isolate 4-2): 16 µg/mL
- MIC of DOX ([3]; microemulsion D3, end-point isolate 4-3): 16 µg/mL
- MIC of DOX ([3]; microemulsion D3, end-point isolate 5-1): 16 µg/mL
- MIC of DOX ([3]; microemulsion D3, end-point isolate 5-2): 16 µg/mL
- MIC of DOX ([3]; microemulsion D3, end-point isolate 5-3): 16 µg/mL
- MIC of DOX ([3]; microemulsion D3, isolate C1 (no drug control)): 4 µg/mL
- MIC of DOX ([3]; microemulsion D3, isolate C2 (no drug control)): 4 µg/mL
- MIC of DOX ([3]; microemulsion D3, isolate C3 (no drug control)): 4 µg/mL
- MIC of DOX ([3]; microemulsion D4, end-point isolate 4-1): 16 µg/mL
- MIC of DOX ([3]; microemulsion D4, end-point isolate 4-2): 16 µg/mL
- MIC of DOX ([3]; microemulsion D4, end-point isolate 4-3): 16 µg/mL
- MIC of DOX ([3]; microemulsion D4, end-point isolate 5-1): 16 µg/mL
- MIC of DOX ([3]; microemulsion D4, end-point isolate 5-2): 16 µg/mL
- MIC of DOX ([3]; microemulsion D4, end-point isolate 5-3): 8 µg/mL
- MIC of DOX ([3]; microemulsion D4, isolate C1 (no drug control)): 4 µg/mL
- MIC of DOX ([3]; microemulsion D4, isolate C2 (no drug control)): 4 µg/mL
- MIC of DOX ([3]; microemulsion D4, isolate C3 (no drug control)): 4 µg/mL
- MIC of DOX ([3]; microemulsion D5, end-point isolate 1-1): 16 µg/mL
- MIC of DOX ([3]; microemulsion D5, end-point isolate 1-2): >16 µg/mL
- MIC of DOX ([3]; microemulsion D5, end-point isolate 1-3): 16 µg/mL
- MIC of DOX ([3]; microemulsion D5, end-point isolate 2-1): >16 µg/mL
- MIC of DOX ([3]; microemulsion D5, end-point isolate 2-2): 16 µg/mL
- MIC of DOX ([3]; microemulsion D5, end-point isolate 2-3): 16 µg/mL
- MIC of DOX ([3]; microemulsion D5, end-point isolate 3-1): >16 µg/mL
- MIC of DOX ([3]; microemulsion D5, end-point isolate 3-2): 16 µg/mL
- MIC of DOX ([3]; microemulsion D5, end-point isolate 3-3): >16 µg/mL
- MIC of DOX ([3]; microemulsion D5, isolate C1 (no drug control)): 4 µg/mL
- MIC of DOX ([3]; microemulsion D5, isolate C2 (no drug control)): 4 µg/mL
- MIC of DOX ([3]; microemulsion D5, isolate C3 (no drug control)): 4 µg/mL
